Reference: patent US20240043439A1, “COMPOUNDS AS C5AR INHIBITORS” (Kira Pharmaceuticals (Suzhou) Ltd., priority 2020, published 2024)
pIC50: −log10 of the molar value.

These compounds were tested against C5aR (Homo sapiens (Human), UniProt P21730) (assay: Calcium mobilization (U937/C5aR or HEK293/C5aR cells, FLIPR)). Conditions: agonist human C5a at EC80, FLIPR.
Assay type: cell-based
Description: U937/C5aR cells or HEK293/C5aR cells were washed by PBS and suspended in growth media at the density of 1×10^6 cells/ml. […] to the 384-well plate and culture for overnight. Transfer 250 nl compound solution to the cell plate using Echo, incubate for 60 min. Cells were added with Fluo-4 Direct™ dye and incubate for 50 min at 37° C. 5% CO2 and 10 m at room temperature. Place the cell plate into […] (Molecular Devices). Transfer 10 μl of 5-fold EC80 concentrations of agonist human C5a to the cell plates.

C5aR, sequence (P21730 whole entry): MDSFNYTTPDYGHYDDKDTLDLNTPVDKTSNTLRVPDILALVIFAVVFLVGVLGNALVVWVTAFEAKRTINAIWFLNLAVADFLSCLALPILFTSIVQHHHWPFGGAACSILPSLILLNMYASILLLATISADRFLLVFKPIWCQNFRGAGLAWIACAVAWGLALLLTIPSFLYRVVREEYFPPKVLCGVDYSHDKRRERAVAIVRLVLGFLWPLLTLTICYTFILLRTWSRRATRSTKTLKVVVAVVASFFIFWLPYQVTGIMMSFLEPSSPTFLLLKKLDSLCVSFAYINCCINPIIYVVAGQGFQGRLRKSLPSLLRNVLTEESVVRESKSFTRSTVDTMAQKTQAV

| pIC50 | Compound |
| --- | --- |
| 5.00 to 5.70 | Cc1ccc(NC(=O)[C@H]2CCCN(Cc3c(C)cccc3F)[C@H]2c2ccc(NC3CCCC3)cc2)cc1C(F)(F)F [Compound 159, (2R,3S)-2-(4-(cyclopentylamino)phenyl)-1-(2-fluoro-6-methylbenzyl)-N-(4-methyl-3-(trifluoromethyl)phenyl)piperidine-3-carboxamide] |
| 5.00 to 5.70 | Cc1ccc(NC(=O)[C@@H]2CCC3CCc4ccccc4C(=O)N3[C@@H]2c2ccc(NC3CCCC3)cc2)cc1C(F)(F)F (stereo partly drawn) [Compound 45, (3R,4S)-4-(4-(cyclopentylamino)phenyl)-N-(4-methyl-3-(trifluoromethyl)phenyl)-6-oxo-1,2,3,4,6,11,12,12a-octahydrobenzo[e]pyrido[1,2-a]azepine-3-carboxamide] |
| 5.00 to 5.70 | Cc1ccc(NC(=O)[C@@H]2CCCN[C@H]2c2ccc(N(c3ncnc4cccnc34)C3CCCC3)cc2)cc1C(F)(F)F [Compound 174, (2R,3R)-2-(4-(cyclopentyl(pyrido[3,2-d]pyrimidin-4-yl)amino)phenyl)-N-(4-methyl-3-(trifluoromethyl)phenyl)piperidine-3-carboxamide] |
| 5.00 to 5.70 | Cc1ccc(CNC(=O)[C@H]2C[C@H]3CCC[C@H]3N(C(=O)c3c(C)cccc3F)[C@H]2c2ccc(NC3CCCC3)cc2)cc1C(F)(F)F [Compound 185, (2R,3S,4aR,7aR)-2-(4-(cyclopentylamino)phenyl)-1-(2-fluoro-6-methylbenzoyl)-N-(4-methyl-3-(trifluoromethyl)benzyl)octahydro-1H-cyclopenta[b]pyridine-3-carboxamide] |
| 5.00 to 5.70 | Cc1cccc(F)c1C(=O)N1[C@@H]2COC[C@@H]2CC(C(=O)Nc2cccnc2)[C@@H]1c1ccc(NC2CCOCC2)cc1 (mixture of isomers) [Compound 128, cis-1-(2-fluoro-6-methylbenzoyl)-N-(pyridin-3-yl)-2-(4-((tetrahydro-2H-pyran-4-yl)amino)phenyl)octahydrofuro[3,4-b]pyridine-3-carboxamide] |
| < 5.00 | COC(=O)c1cccc(C)c1S(=O)(=O)N1CCC[C@H](C(=O)Nc2ccc(C)c(C(F)(F)F)c2)[C@@H]1c1ccc(NC2CCCC2)cc1 [Compound 21, methyl 2-(((2R,3S)-2-(4-(cyclopentylamino)phenyl)-3-((4-methyl-3-(trifluoromethyl)phenyl)carbamoyl)piperidin-1-yl)sulfonyl)-3-methylbenzoate] |
| 5.00 to 5.70 | Cc1ccc(NC(=O)[C@H]2CCCN[C@H]2c2ccc(N(c3nccc4ccsc34)C3CCCC3)cc2)cc1C(F)(F)F [Compound 173, (2R,3S)-2-(4-(cyclopentyl(thieno[2,3-c]pyridin-7-yl)amino)phenyl)-N-(4-methyl-3-(trifluoromethyl)phenyl)piperidine-3-carboxamide] |
| 5.00 to 5.70 | Cc1ccc(NC(=O)[C@H]2CCCN[C@H]2c2ccc(N(c3nccc4ccccc34)C3CCCC3)cc2)cc1C(F)(F)F [Compound 175, (2R,3S)-2-(4-(cyclopentyl(isoquinolin-1-yl)amino)phenyl)-N-(4-methyl-3-(trifluoromethyl)phenyl)piperidine-3-carboxamide] |
| 5.00 to 5.70 | Cc1ccc(NC(=O)[C@H]2CCCN(c3nccc4nccnc34)[C@H]2c2ccc(N(C(=O)OCc3ccccc3)C3CCCC3)cc2)cc1C(F)(F)F [Compound 165, benzyl cyclopentyl(4-((2R,3S)-3-((4-methyl-3-(trifluoromethyl)phenyl)carbamoyl)-1-(pyrido[3,4-b]pyrazin-5-yl)piperidin-2-yl)phenyl)carbamate] |
| 5.00 to 5.70 | Cc1ccc(NC(=O)[C@H]2CCCN(c3ncnc4ccccc34)[C@H]2c2ccc(N(C(=O)OCc3ccccc3)C3CCCC3)cc2)cc1C(F)(F)F [Compound 163, benzyl cyclopentyl(4-((2R,3S)-3-((4-methyl-3-(trifluoromethyl)phenyl)carbamoyl)-1-(quinazolin-4-yl)piperidin-2-yl)phenyl)carbamate] |
| 5.00 to 5.70 | Cc1ccc(NC(=O)C2CC3CCCC3N(C(=O)c3c(C)cccc3F)C2c2ccc(NC3CCCC3)cc2)cc1C(F)(F)F (stereo in doubt) [Compound 48, (2S,3R,4aS,7aS)-2-(4-(cyclopentylamino)phenyl)-1-(2-fluoro-6-methylbenzoyl)-N-(4-methyl-3-(trifluoromethyl)phenyl)octahydro-1H-cyclopenta[b]pyridine-3-carboxamide] |
| < 5.00 | Cc1cccc(F)c1C(=O)N1C2CCC[C@@H]2C[C@H](C(=O)Nc2cnc(-n3nccn3)c(Cl)c2)[C@@H]1c1ccc(NC2CCCC2)cc1 (relative stereo) [Compound 75, cis-N-(5-chloro-6-(2H-1,2,3-triazol-2-yl)pyridin-3-yl)-2-(4-(cyclopentylamino)phenyl)-1-(2-fluoro-6-methylbenzoyl)octahydro-1H-cyclopenta[b]pyridine-3-carboxamide] |
| 5.00 to 5.70 | Cc1ccc(NC(=O)[C@@H]2CCCN(c3ccncn3)[C@H]2c2ccc(NC3CCCC3)cc2)cc1C(F)(F)F [Compound 3, (2R,3R)-2-(4-(cyclopentylamino)phenyl)-N-(4-methyl-3-(trifluoromethyl)phenyl)-1-(pyrimidin-4-yl)piperidine-3-carboxamide] |
| < 5.00 | Cc1ccc(NC(=O)[C@H]2C[C@H]3CCC[C@H]3N(C(=O)c3cnn(C)c3)C2c2ccc(NC3CCCC3)cc2)cc1C(F)(F)F (relative stereo) [Compound 112, cis-2-(4-(cyclopentylamino)phenyl)-1-(1-methyl-1H-pyrazole-4-carbonyl)-N-(4-methyl-3-(trifluoromethyl)phenyl)octahydro-1H-cyclopenta[b]pyridine-3-carboxamide] |
| 5.00 to 5.70 | Cc1ccc(NC(=O)[C@H]2CCCN[C@H]2c2ccc(N(c3ncnc4cccnc34)C3CCCC3)cc2)cc1C(F)(F)F [Compound 176, (2R,3S)-2-(4-(cyclopentyl(pyrido[3,2-d]pyrimidin-4-yl)amino)phenyl)-N-(4-methyl-3-(trifluoromethyl)phenyl)piperidine-3-carboxamide] |
| 5.00 to 5.70 | Cc1ccc(NC(=O)[C@@H]2CCCN[C@H]2c2ccc(N(c3nccc4cccnc34)C3CCCC3)cc2)cc1C(F)(F)F [Compound 171, (2R,3R)-2-(4-(cyclopentyl(1,7-naphthyridin-8-yl)amino)phenyl)-N-(4-methyl-3-(trifluoromethyl)phenyl)piperidine-3-carboxamide] |
| 5.00 to 5.70 | Cc1ccc(NC(=O)[C@H]2CCCN[C@H]2c2ccc(N(c3nccc4nccnc34)C3CCCC3)cc2)cc1C(F)(F)F [Compound 172, (2R,3S)-2-(4-(cyclopentyl(pyrido[3,4-b]pyrazin-5-yl)amino)phenyl)-N-(4-methyl-3-(trifluoromethyl)phenyl)piperidine-3-carboxamide] |
| < 5.00 | Cc1cc(C)cc(S(=O)(=O)N2CCC[C@H](C(=O)Nc3ccc(C)c(C(F)(F)F)c3)[C@@H]2c2ccc(NC3CCCC3)cc2)c1 [Compound 12, (2R,3S)-2-(4-(cyclopentylamino)phenyl)-1-((3,5-dimethylphenyl)sulfonyl)-N-(4-methyl-3-(trifluoromethyl)phenyl)piperidine-3-carboxamide] |
| 5.00 to 5.70 | Cc1cccc(F)c1C(=O)N1[C@@H]2CCC[C@@H]2C[C@H](C(=O)NC2CCN(C)CC2)[C@@H]1c1ccc(NC2CCCC2)cc1 [Compound 53, (2R,3S,4aR,7aR)-2-(4-(cyclopentylamino)phenyl)-1-(2-fluoro-6-methylbenzoyl)-N-(1-methylpiperidin-4-yl)octahydro-1H-cyclopenta[b]pyridine-3-carboxamide] |
| 5.00 to 5.70 | Cc1ccc(NC(=O)[C@H]2CCCN[C@H]2c2ccc(N(c3nccc4scnc34)C3CCCC3)cc2)cc1C(F)(F)F [Compound 169, (2R,3S)-2-(4-(cyclopentyl(thiazolo[4,5-c]pyridin-4-yl)amino)phenyl)-N-(4-methyl-3-(trifluoromethyl)phenyl)piperidine-3-carboxamide] |
| 5.00 to 5.70 | COC(=O)c1ccccc1S(=O)(=O)N1CCC[C@H](C(=O)Nc2ccc(C)c(C(F)(F)F)c2)[C@@H]1c1ccc(NC2CCCC2)cc1 [Compound 31, methyl 2-(((2R,3S)-2-(4-(cyclopentylamino)phenyl)-3-((4-methyl-3-(trifluoromethyl)phenyl)carbamoyl)piperidin-1-yl)sulfonyl)benzoate] |

| Compound | pIC50 |
| --- | --- |
| Cc1ccc(NC(=O)[C@H]2CCCN(c3ncnc4cnccc34)[C@H]2c2ccc(N(C(=O)OCc3ccccc3)C3CCCC3)cc2)cc1C(F)(F)F [Compound 167, benzyl cyclopentyl(4-((2R,3S)-3-((4-methyl-3-(trifluoromethyl)phenyl)carbamoyl)-1-(pyrido[3,4-d]pyrimidin-4-yl)piperidin-2-yl)phenyl)carbamate] | 5.00 to 5.70 |
| Cc1ccc(NC(=O)C2C[C@@H]3CN(CC(F)(F)F)C[C@@H]3N(C(=O)c3c(C)cccc3F)C2c2ccc(NC3CCCC3)cc2)cc1C(F)(F)F (relative stereo) [Compound 206, cis-2-(4-(cyclopentylamino)phenyl)-1-(2-fluoro-6-methylbenzoyl)-N-(4-methyl-3-(trifluoromethyl)phenyl)-6-(2,2,2-trifluoroethyl)octahydro-1H-pyrrolo[3,4-b]pyridine-3-carboxamide] | 5.00 to 5.70 |
| (cis-3-(6-chloro-1,2,3,4-tetrahydroisoquinoline-2-carbonyl)-2-(4-(cyclopentylamino)phenyl)octahydro-1H-cyclopenta[b]pyridin-1-yl)(2-fluoro-6-methylphenyl)methanone [Compound 72] | 5.00 to 5.70 |
| Cc1cccc(F)c1C(=O)N1C(c2ccc(NC3CCN(C)CC3)cc2)C(C(=O)Nc2ccc3c(cnn3C)c2)C[C@@H]2CCC[C@@H]21 (relative stereo) [Compound 117, cis-1-(2-fluoro-6-methylbenzoyl)-N-(1-methyl-1H-indazol-5-yl)-2-(4-((1-methylpiperidin-4-yl)amino)phenyl)octahydro-1H-cyclopenta[b]pyridine-3-carboxamide] | 5.00 to 5.70 |
